Measurements published in patent publication US12435060B2, “Acylamino bridged heterocyclic compound, and composition and application thereof” (BEIJING SCITECH-MQ PHARMACEUTICALS LIMITED, priority 2019, dated 2025).

Test system: HT29 cells
Experiment: Inhibition of cell necrosis (CCK8 method), induced programmed necrosis of HT29 cells
Assay type: cell-based
Conditions: Homo sapiens, HT-29; rescue from necrosis induced by TNF-α 20 ng/mL, AT-406 1 μM, Z-VAD-FMK 20 μM; 16-20 hours; CCK-8, OD 450 nm
Experimental: Assay Example 2. Assay Method for Compounds Inhibiting Cell Necrosis (CCK8 Method)
In this assay example 2, under the condition of inducing programmed cell necrosis, different concentrations of the test compounds were added to test the IC50 of the rescue effect of the test compounds on the programmed necrosis.
• Compounds: Dissolved in DMSO to make a 10 mM solution; • TNF-α: The initial concentration was 100 μg/mL; • Z-VAD-FMK: Dissolved in DMSO to make a 10 mM solution; • AT-406: Dissolved in DMSO to make a 10 mM solution. I. Experimental Steps • 1) Compound dilution: All test compounds were dissolved in DMSO to prepare a 10 mM stock solution, and the first concentration gradient dilution of the test compounds was completed in DMSO. The gradient dilution factor was 4 times and 9 concentration gradients were made; A 40-fold overall dilution of all compounds was completed in the cell culture medium, and the resulting compound was 10× compound, which will be added to the wells of the 96-well plate containing cells, so that the final cell culture medium was 1× the designed final concentration. The general drug design is 9 concentration gradients, of which the highest final concentration is 25000 nM, the lowest concentration after 4-fold dilution of 9 concentrations is 0.38 nM, and the final concentration of DMSO in all wells is 0.25%. The compound dilution process is shown in FIG. 3. • 2) HT 29 cells in good growth condition were selected, trypsinized, the cells was collected by centrifugation, resuspended in McCOY's 5A complete medium (containing 10% FBS) and counted, and the number of cells and survival rate were recorded. • 3) Cells were inoculated to the 60 wells in the middle of the 96-well culture plate at a density of 12000 cells/80 μL/well, surrounding wells were filled with sterile water, and incubated overnight. • 4) 10 μL of the 10× compound diluted with the medium was added to the assay wells, 10 μL of McCOY's 5A complete medium containing 2.5% DMSO was added to the inducer-free wells and the control wells, mixed and shaked, and incubated for 30 minutes. • 5) Then 10 μL of inducer mixture (TNF-α, AT-406, Z-VAD-FMK with the final concentration of 20 ng/mL, 1 μM, 20 μM) was added into the assay wells and control wells. 10 μL McCOY's 5A complete medium was added to wells without inducer. Cells were cultured in an incubator with 5% CO2, at 37° C. • 6) After culturing for 16-20 hours, 10 μL of CCK-8 reagent was added to each well, and incubated for about 2 hours; • 7) The OD value was read at 450 nm on the multi-function plate reader. • 8) Data processing: Inhibition rate of necrosis (%)=100*(X−B)/(A−B) • A: The OD values of the wells without inducer (containing cells, CCK-8, without compound and inducer); • […]: OD values of assay wells (containing cells, CCK-8, compound, inducer); • B: OD values of control wells (containing cells, CCK-8, inducer, without compound). Then the value were imported into Graphpad Prism5 software for curve fitting and the IC50 values were calculated.

| SMILES | IC50 [nM] |
| --- | --- |
| CCOCCOc1ccc(C(F)(F)F)c(-c2ccnc(NC(=O)c3nnc(Cc4ccccc4F)[nH]3)c2)c1 [Example 284, 5-(2-fluorobenzyl)-N-(4-(5-(2-ethoxyethoxy)-2-(trifluoromethyl)phenyl)pyridin-2-yl)-4H-1,2,4-triazole-3-carboxamide] | ≤ 100 |
| Cc1ccc(OCCCC(C)(C)O)cc1-c1cc(NC(=O)c2nnc(Cc3ccccc3F)[nH]2)ncn1 [Example 433, 5-(2-fluorobenzyl)-N-(6-(5-((4-hydroxy-4-methylpentyl)oxy)-2-methylphenyl)pyrimidin-4-yl)-4H-1,2,4-triazole-3-carboxamide] | ≤ 100 |
| Cc1ccc(C(N)=O)cc1-c1ccnc(NC(=O)c2nnc(Cc3ccccc3)[nH]2)c1 [Example 158, 5-benzyl-N-(4-(5-carbamoyl-2-methylphenyl)pyridin-2-yl)-4H-1,2,4-triazole-3-carboxamide] | 1000 to 10000 |
| COc1ccc(C)c(-c2ccnc(NC(=O)c3nnc(CC4CCCC4)[nH]3)c2)c1 [Example 102, 5-(cyclopentylmethyl)-N-(4-(5-methoxy-2-methylphenyl)pyridin-2-yl)-4H-1,2,4-triazole-3-carboxamide] | 100 to 1000 |
| Cc1ccc(OCCCC(C)(C)O)cc1-c1cc(NC(=O)c2nnc(CC3CCCCC3)[nH]2)ncn1 [Example 440, 5-(cyclohexylmethyl)-N-(6-(5-((4-hydroxy-4-methylpentyl)oxy)-2-methylphenyl)pyrimidin-4-yl)-4H-1,2,4-triazole-3-carboxamide] | ≤ 100 |
| Cc1ccc(S(=O)(=O)CCCC(C)(C)O)cc1-c1ccnc(NC(=O)c2nnc(Cc3ccccc3)[nH]2)c1 [Example 474, 5-benzyl-N-(4-(5-((4-hydroxy-4-methylpentyl)sulfonyl)-2-methylphenyl)pyridin-2-yl)-4H-1,2,4-triazole-3-carboxamide] | 100 to 1000 |
| O=C(Nc1cc(-c2cc(OCCCCCO)ccc2C(F)(F)F)ccn1)c1nnc(CC2CCCCC2)[nH]1 [Example 278, 5-(cyclohexylmethyl)-N-(4-(5-((5-hydroxypentyl)oxy)-2-(trifluoromethyl)phenyl)pyridin-2-yl)-4H-1,2,4-triazole-3-carboxamide] | ≤ 100 |
| CC(C)(O)CCCOc1ccc(C(F)(F)F)c(-c2cc(NC(=O)c3nnc(Cc4ccccc4F)[nH]3)ncn2)c1 [Example 451, 5-(2-fluorobenzyl)-N-(6-(5-((4-hydroxy-4-methylpentyl)oxy)-2-(trifluoromethyl)phenyl)pyrimidin-4-yl)-4H-1,2,4-triazole-3-carboxamide] | ≤ 100 |
| O=C(Nc1cc(-c2cc(OCC3CCOCC3)ccc2C(F)(F)F)ccn1)c1nnc(CC2CCCCC2)[nH]1 [Example 304, 5-(cyclohexylmethyl)-N-(4-(5-((tetrahydro-2H-pyran-4-yl)methoxy)-2-(trifluoromethyl)phenyl)pyridin-2-yl)-4H-1,2,4-triazole-3-carboxamide] | ≤ 100 |
| Cc1ccc(OCCCCC(C)(C)O)cc1-c1cc(NC(=O)c2nnc(Cc3ccccc3F)[nH]2)ncc1F [Example 494, N-(5-fluoro-4-(5-((5-hydroxyl-5-methylhexyl)oxy)-2-methylphenyl)pyridin-2-yl)-5-(2-fluorobenzyl)-4H-1,2,4-triazole-3-carboxamide] | ≤ 100 |
| O=C(Nc1cc(-c2cc(OCC3CCOCC3)ccc2Cl)ncn1)c1nnc(Cc2ccccc2F)[nH]1 [Example 467, 5-(2-fluorobenzyl)-N-(6-(2-chloro-5-((tetrahydro-2H-pyran-4-yl)methoxy)phenyl)pyrimidin-4-yl)-4H-1,2,4-triazole-3-carboxamide] | ≤ 100 |
| O=C(Nc1cc(-c2cc(OCCCCO)ccc2Cl)ccn1)c1nnc(CC2CCCC2)[nH]1 [Example 373, N-(4-(2-chloro-5-(4-hydroxybutoxy)phenyl)pyridin-2-yl)-5-(cyclopentylmethyl)-4H-1,2,4-triazole-3-carboxamide] | ≤ 100 |
| Cc1ccc(OCC(C)(C)O)cc1-c1ccnc(NC(=O)c2nnc(CC3CCCC3)[nH]2)c1 [Example 118, 5-(cyclopentylmethyl)-N-(4-(5-(2-hydroxyl-2-methylpropoxy)-2-methylphenyl)pyridin-2-yl)-4H-1,2,4-triazole-3-carboxamide] | ≤ 100 |
| CCOc1ccc(Cl)c(-c2ccnc(NC(=O)c3nnc(Cc4ccccc4)[nH]3)c2)c1 [Example 106, 5-benzyl-N-(4-(2-chloro-5-ethoxyphenyl)pyridin-2-yl)-4H-1,2,4-triazole-3-carboxamide] | 1000 to 10000 |
| O=C(Nc1cc(-c2cc(OCC3CCOCC3)ccc2F)c(F)cn1)c1nnc(CC2CCCCC2)[nH]1 [Example 328, 5-(cyclohexylmethyl)-N-(5-fluoro-4-(2-fluoro-5-((tetrahydro-2H-pyran-4-yl)methoxy)phenyl)pyridin-2-yl)-4H-1,2,4-triazole-3-carboxamide] | ≤ 100 |
| Cc1ccc(OCCN2CCCC2=O)cc1-c1ccnc(NC(=O)c2nnc(Cc3ccccc3)[nH]2)c1 [Example 71, 5-benzyl-N-(4-(2-methyl-5-(2-(2-oxopyrrolidin-1-yl)ethoxy)phenyl)pyridin-2-yl)-4H-1,2,4-triazole-3-carboxamide] | ≤ 100 |
| Cc1ccc(OCCC2CCOCC2)cc1-c1ccnc(NC(=O)c2nnc(CC3CCCCC3)[nH]2)c1 [Example 89, 5-(cyclohexylmethyl)-N-(4-(2-methyl-5-(2-(tetrahydro-2H-pyran-4-yl)ethoxy)phenyl)pyridin-2-yl)-4H-1,2,4-triazole-3-carboxamide] | ≤ 100 |
| CC(C)(O)CCCOc1ccc(Cl)c(-c2cc(NC(=O)c3nnc(Cc4ccccc4F)[nH]3)ncc2Cl)c1 [Example 411, N-(5-chloro-4-(2-chloro-5-((4-hydroxy-4-methylpentyl)oxy)phenyl)pyridin-2-yl)-5-(2-fluorobenzyl)-4H-1,2,4-triazole-3-carboxamide] | 100 to 1000 |
| Cc1ccc(OCCC2CCOCC2)cc1-c1cc(NC(=O)c2nnc(Cc3ccccc3)[nH]2)ncn1 [Example 445, 5-benzyl-N-(6-(2-methyl-5-(2-(tetrahydro-2H-pyran-4-yl)ethoxy)phenyl)pyrimidin-4-yl)-4H-1,2,4-triazole-3-carboxamide] | ≤ 100 |
| CC(C)(C)OCCOc1ccc(C=O)c(-c2ccnc(NC(=O)c3nnc(Cc4ccccc4)[nH]3)c2)c1 [Example 195, 5-benzyl-N-(4-(5-(2-(tert-butoxy)ethoxy)-2-formylphenyl)pyridin-2-yl)-4H-1,2,4-triazole-3-carboxamide] | ≤ 100 |
| CCOCCOc1ccc(C(F)(F)F)c(-c2ccnc(NC(=O)c3nnc(CC4CCCCC4)[nH]3)c2)c1 [Example 286, 5-(cyclohexylmethyl)-N-(4-(5-(2-ethoxyethoxy)-2-(trifluoromethyl)phenyl)pyridin-2-yl)-4H-1,2,4-triazole-3-carboxamide] | ≤ 100 |
| CCC(O)(CC)CCCOc1ccc(C)c(-c2cc(NC(=O)c3nnc(Cc4ccccc4F)[nH]3)ncc2F)c1 [Example 242, N-(4-(5-((4-ethyl-4-hydroxyhexyl)oxy)-2-methylphenyl)-5-fluoropyridin-2-yl)-5-(2-fluorobenzyl)-4H-1,2,4-triazole-3-carboxamide] | ≤ 100 |
| Cc1ccc(OCCCC(C)(C)O)cc1-c1ccnc(NC(=O)c2nnc(Cc3ccc(C#N)cc3)[nH]2)c1 [Example 191, 5-(4-cyanobenzyl)-N-(4-(5-((4-hydroxy-4-methylpentyl)oxy)-2-methylphenyl)pyridin-2-yl)-4H-1,2,4-triazole-3-carboxamide] | 100 to 1000 |
